Results as given in patent US20220016080A1, “COMPOUNDS THAT SELECTIVELY AND EFFECTIVELY INHIBIT HAKAI-MEDIATED UBIQUITINATION, AS ANTI-CANCER DRUGS” (FUNDACIÓN PROFESOR NOVOA SANTOS, priority 2018, published 2022).

Columns and labels:
[1] = test system: Hakai-MDCK cell lines (clone 4 and clone 11); assay: MTT cell viability assay, Hakai-MDCK; format: cell-based; conditions: both clones of Hakai-MDCK compared to MDCK; 72 h
Experimental: (§1) For cytotoxicity assays, 1×10^4 cells were seeded per well into a 96-well plate. After 24 h cells were treated with the indicated inhibitors for 72 h and a MTT colorimetric cell viability assay was performed following manufacturer's instructions (Sigma Aldrich, St Louis, Mo.). Absorbance was measured at 570 and 630 nm using a Multiskan Plus Reader (Nanoquant Infinite M200 Tecan Trading AG, Switzerland). Dose-response curves were designed with Graph Pad Prism Software and the half-maximal inhibitory concentration (IC50) values were calculated. Represented data are the mean±SEM of at least three independent experiments with six replicates per condition.

[2] = test system: ubiquitination in 293T cells; assay: Ubiquitination assay in 293T cells transfected with v-Src and HA-ubiquitin (Hakai not overexpressed); format: cell-based
Experimental: Six hours after transfection cells were treated with indicated concentrations of Hakin-1, Hakin-5 or the rest of the analogues tested for 36 h. Whole cell extracts were obtained in lysis buffer (20 mM Tris-HCl pH 7.5, 150 mM NaCl and 1% Triton X-100) containing 10 μg/ml leupeptin, 10 μg/ml aprotinin and 1 mM phenylmethanesulphonyl fluoride (PMSF), supplemented with 10 mM N-ethylmaleimide. Cells were harvested and subjected to western blotting using anti-HA antibody to detect ubiquitination.

HT29 cells = assay: BrdU proliferation assay, HT29; format: cell-based; conditions: 48 h
Experimental: (§2) For BrdU assays, 1×10^4 of indicated cells were plated per well into a 96-well plate. After 24 h, cells were treated with the indicated inhibitors for 48 h. Three independent experiments were plated with six replicates per each condition. Cells were treated with […] BrdU for 2 h. BrdU incorporation into newly synthesized DNA was measured using a cell proliferation colorimetric immunoassay kit according to the manufacturer's instructions (Roche, Switzerland). Results are expressed as mean±S.D. Results are represented as percentage of positive cells (mean±S.D) of three independent experiments.

HT-29 cells [3] = assay: Immunofluorescence of E-cadherin, HT-29; format: cell-based; conditions: 48 h
Experimental: (§3) For western blot analysis, cells were treated with the indicated inhibitors for 48 h and the whole cell extracts were obtained as described previously. Twenty micrograms of lysates were resolved on a 10% polyacrilamide SDS-PAGE followed by western blot analysis performed as previously described. For immunofluorescence assays cells were grown for 24 h on glass coverslips and treated with the indicated inhibitors for 48 h. Cells were fixed with 4% PFA for 15 min, permeabilized with 0.5% […] and incubated with E-cadherin antibody for 2 h. Coverslips were incubated with fluorescein-tagged secondary antibody (Dakopatts, Sweden) for […]. Finally coverslips were mounted with ProLong Gold antifade reagent (LifeTech, UK) and images were taken in epifluorescence microscope (Olympus) using 40× objective.

[4] = test system: normal epithelial MDCK cell line; assay: MTT cell viability assay, MDCK; format: cell-based; conditions: normal epithelial MDCK compared to Hakai-MDCK; 72 h
Experimental: as §1

[5] = test system: non-transformed epithelial MDCK cells; assay: BrdU proliferation assay, MDCK; format: cell-based; conditions: 48 h
Experimental: as §2

[6] = test system: prostate cancer PC-3 cells; assay: BrdU proliferation assay, PC-3; format: cell-based, human; conditions: 48 h
Experimental: as §2

HT-29 cells [7] = assay: Western blotting of EMT markers, HT-29; format: cell-based; conditions: 48 h
Experimental: as §3

Hakai-MDCK cells [8] = assay: E-cadherin protein levels, Hakai-MDCK; format: cell-based; conditions: mesenchymal Hakai-MDCK cells, no basal E-cadherin
Experimental: as §3

Hakai-MDCK cells [9] = assay: Soft agar-colony formation assay, Hakai-MDCK; format: cell-based; conditions: 21 days
Experimental: Soft agar-colony formation assay was performed on 12-well plates in triplicates at a density of 5×10^3 MDCK and MDCK-Hakai cells/well, or 12×10^3 HT29 cells/well. Cells were seeded in medium with 0.5% low-melting agarose over a layer with 0.75% low-melting agarose (Lonza Rockland, Me., USA). Cells were treated with the indicated inhibitors and DMSO was used as vehicle. Treatment was refreshed every 3 days and, after 21 days for MDCK and MDCK-Hakai cells or 28 days for HT29 cells, number of colonies were quantified. Quantification of five randomly-selected fields of each condition was photographed with a Nikon Eclipse-TI microscope (objective 4×). Experiments were conducted with three triplicates and were repeated three times. Data are represented as mean±SD.

## O=C(O)c1ccc(-n2nnnc2SCC(=O)c2ccc([N+](=O)[O-])cc2)cc1 [Hakin-1, 4-(5-{[2-(4-nitrophenyl)-2-oxoethyl]thiol}-1H-tetrazol-1-yl)benzoic acid]
[1]
  sensitivity to treatment (cell viability, MTT): more sensitive
[2]
  ubiquitination when Hakai was not overexpressed: did not affect ubiquitination
HT29 cells
  cell proliferation (BrdU): reduced cell proliferation
HT-29 cells [3]
  E-cadherin levels at cell-cell contacts (immunofluorescence): significant increase E-cadherin levels at cell-cell contacts
[4]
  sensitivity to treatment (cell viability, MTT): more resistant
[5]
  cell proliferation (BrdU): no effect was detected
[6]
  cell proliferation (BrdU): inhibits cell proliferation
HT-29 cells [7]
  Cortactin expression levels (western blotting): increase expression levels
  E-cadherin levels (western blotting): increase E-cadherin levels
  mesenchymal Vimentin marker (western blotting): reduced
Hakai-MDCK cells [8]
  E-cadherin protein levels: no recovery was detected
Hakai-MDCK cells [9]
  colony formation (soft agar): robust inhibition of colony formation
